Literature values, collected in patent publication US7204982B2, “Compositions and methods for treatment and detection of multiple cancers” (The Regents of the University of California, priority 2002, dated 2007).
Structures can show the parent of a compound that is named as a salt.

Experiments:
[1] = system: human glioblastoma cell lines (U87, U373, and U138); settings: cell lines lack detectable estrogen receptor expression
malignant gliomas = settings: high doses, orally administered; Couldwell et al. 1996

CC/C(=C(\c1ccccc1)c1ccc(OCCN(C)C)cc1)c1ccccc1 [tamoxifen, (Z)-2[p[(1,2-diphenyl-1-butenyl)phenoxyl]-N,N-dimethylamine citrate]
cytotoxicity [1]: responsive to tamoxifen cytotoxicity
clinical benefit (malignant gliomas): of benefit in some patients with malignant gliomas
